Test results as given in patent US20080255186A1, “Pyrazolo[3,4-B]Pyridine Compound, and Its Use as a Pde4 Inhibitor” (priority 2005, published 2008).

Target: T1, PDE4B (human recombinant) (Homo sapiens, UniProt Q07343)
T1 construct: made in house; host or cells: Saccharomyces cerevisiae strain GL62 (PDE-deficient yeast)
Assay: PDE4B inhibition, IMAP Fluorescence Polarisation (FP) assay
Type: biochemical
Details: mean of n = 3 readings; accurate to about ±0.5 log unit; read-out: PDE4B pIC50 (± about 0.5) (FP assay), Mean pIC50 value (converted)
Excerpt: Human recombinant PDE4B, in particular the 2B splice variant thereof (HSPDE4B2B), is disclosed in WO 94/20079 and also M. M. McLaughlin et al., “A low Km, rolipram-sensitive, cAMP-specific phosphodiesterase from human brain: cloning and expression of cDNA, biochemical characterisation of recombinant protein, and tissue distribution of mRNA”, J. Biol. Chem., 1993, 268, 6470-6476. For example, in Example 1 of WO 94/20079, human recombinant PDE4B is described as being expressed in the PDE-deficient yeast Saccharomyces cerevisiae strain GL62, e.g. after induction by addition of 150 uM CuSO4, and 100,000×g supernatant fractions of yeast cell lysates are described for use in the harvesting of PDE4B enzyme.
The ability of compounds to inhibit catalytic activity at PDE4B (human recombinant) or PDE4D (human recombinant) can optionally be determined by IMAP Fluorescence Polarisation (FP) assay (IMAP Explorer kit, available from Molecular Devices Corporation, Sunnydale, Calif., USA; Molecular Devices code: R8062) in 384-well format.
The IMAP FP assay is able to measure PDE activity in an homogenous, non-radioactive assay format. […] Binding of Fl-AMP product to the beads (coated with the immobilised trivalent cations) slows the rotation of the bound Fl-AMP and leads to an increase in the fluorescence polarisation ratio of parallel to perpendicular light. […]

T1 sequence (Q07343 1-564 isoform Q07343-2): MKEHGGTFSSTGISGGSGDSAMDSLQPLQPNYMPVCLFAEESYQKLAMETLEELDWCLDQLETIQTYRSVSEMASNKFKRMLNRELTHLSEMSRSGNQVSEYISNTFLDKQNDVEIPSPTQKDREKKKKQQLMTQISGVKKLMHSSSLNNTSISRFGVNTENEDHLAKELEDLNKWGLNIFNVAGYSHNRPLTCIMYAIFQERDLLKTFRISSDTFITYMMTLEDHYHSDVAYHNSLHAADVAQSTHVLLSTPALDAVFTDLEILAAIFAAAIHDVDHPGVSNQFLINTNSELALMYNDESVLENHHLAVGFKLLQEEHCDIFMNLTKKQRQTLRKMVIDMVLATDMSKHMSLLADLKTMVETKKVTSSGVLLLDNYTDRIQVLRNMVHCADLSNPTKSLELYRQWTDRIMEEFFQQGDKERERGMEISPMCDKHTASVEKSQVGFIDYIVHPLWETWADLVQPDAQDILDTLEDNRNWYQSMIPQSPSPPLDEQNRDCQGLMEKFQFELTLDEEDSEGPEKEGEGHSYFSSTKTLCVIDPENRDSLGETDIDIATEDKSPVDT

IC50: ~0.158 nM
SMILES: CCc1nc2c(cnn2CC)c(NC2CCOCC2)c1CNC(=O)c1cc(C)no1 [Example 1, N-{[1,6-diethyl-4-(tetrahydro-2H-pyran-4-ylamino)-1H-pyrazolo[3,4-b]pyridin-5-yl]methyl}-3-methyl-5-isoxazolecarboxamide]
